Laboratory results taken from patent US8524665B2, “Use of secretin in treatments of disorders associated with the amygdala” (The McLean Hospital Corporation, priority 2003, dated 2013).

Tests used:
clinical = settings: human, in vivo, iv, 0.4 ug/kg
Method: Upon entering the scanner, an […] was started in an antecubital vein and subjects were randomly assigned to receive either placebo (saline) or RG1068 (synthetic human secretin). Drug was administered at 0.4 μg/kg via the […] over 1 min. A 3-way stop-clock device with a heparinized line was used to collect blood samples immediately preceding the infusion of RG1068 or placebo and at variable points post infusion for drug pharmacokinetic analysis. Vital signs were monitored for at least 20 minutes after infusion. Prior to the infusion, subjects completed three affective challenge paradigms which had been explained to them before entering the scanner. Subjects completed the same paradigms one hour following infusion with either placebo or RG1068 for pre/post comparison (FIG. 1).
Blood samples were taken over the first 60 minutes post dosing, and samples from subjects receiving RG1068 were used to quantify secretin blood levels. […] Both the Cmax and the elimination rate are consistent with values observed after similar secretin infusions in adults (Christ et al., 1988). Whole brain T2 measures were obtained to verify that no global metabolic effect occurred with the administration of secretin.

amygdala [1] = settings: healthy subjects; cited from earlier work
amygdala [2] = settings: depressed patients, versus baseline evaluation; cited from earlier work

CC(C)C[C@H](NC(=O)CNC(=O)[C@H](CCC(N)=O)NC(=O)[C@H](CC(C)C)NC(=O)[C@H](CC(C)C)NC(=O)[C@H](CCCNC(=N)N)NC(=O)[C@H](CCC(N)=O)NC(=O)[C@H](CC(C)C)NC(=O)[C@H](CCCNC(=N)N)NC(=O)[C@H](C)NC(=O)CNC(=O)[C@H](CCC(=O)O)NC(=O)[C@H](CCCNC(=N)N)NC(=O)[C@H](CC(C)C)NC(=O)[C@H](CCCNC(=N)N)NC(=O)[C@H](CO)NC(=O)[C@H](CC(C)C)NC(=O)[C@H](CCC(=O)O)NC(=O)[C@H](CO)NC(=O)[C@@H](NC(=O)[C@H](Cc1ccccc1)NC(=O)[C@@H](NC(=O)CNC(=O)[C@H](CC(=O)O)NC(=O)[C@H](CO)NC(=O)[C@@H](N)Cc1c[nH]cn1)[C@@H](C)O)[C@@H](C)O)C(=O)N[C@H](C(N)=O)C(C)C [Secretin, secretin]
Cmax (clinical): 5.1 ng/mL
half-life (clinical): 3.7 min

C[C@H](N)Cc1ccccc1 [dextroamphetamine]
amygdalar responsivity to facial affect (amygdala [1]): increased amygdalar responsivity

COc1ccc(C(CN(C)C)C2(O)CCCCC2)cc1 (stereo not shown) [venlafaxine]
amygdalar activation to positive stimuli after treatment (amygdala [2]): significant increase in activation
